Structures are written as SMILES. pIC50: −log10 of the molar value.

For one experiment, the system named is cultured human mast cells (CHMC). Briefly: CHMC low cell density IgE activation: tryptase assay. It is filed as cell-based. The conditions noted are these: Homo sapiens, Mast cell, Low Density CHMC, anti-IgE activation, tryptase release; read-out: CHMC anti-IgE Tryptase IC50. How it is done:
Pellet CHMC cells (980 rpm, 10 min) and resuspend in pre-warmed MT. Add 65 ul of cells to each 96-well plate. Depending on the degranulation activity for each particular CHMC donor, load 1000-1500 cells/well. Mix four times followed by a 1 hr incubation at 37° C. […] Stimulate cells by adding 25 ul of 6× anti-IgE solution to the appropriate plates. Add 25 ul MT to un-stimulated control wells. Mix twice following addition of the anti-IgE. Incubate at 37° C. for 30 minutes. […] Spin plates at 1000 rpm for 10 min to pellet cells. Transfer 25 ul of supernatant to a 96-well black bottom plate and add 100 ul of freshly diluted tryptase substrate solution to each well. Incubate plates at room temperature for 30 min.
On to `O=C1COc2ccc(Nc3ncc(F)c(Nc4cccc(O)c4)n3)cc2N1` [Compound R909238], for which the pIC50 is 6.76.

Still in this experiment, the particulars now being: Homo sapiens, Mast cell, Low Density; read-out: CHMC anti-IgE Tryptase.
Turning to `Cc1cccc(Nc2nc(Cl)ncc2F)n1` [Compound R926888], the pIC50 was less than 5.00.

In the case of `Cc1ccnc(Nc2nc(Cl)ncc2F)c1` [Compound R920401], the pIC50 is less than 5.00.

As to `Fc1cnc(Cl)nc1Nc1ccc2ncccc2c1` [Compound R920409], the pIC50 was less than 5.00.

Regarding `Fc1cnc(Cl)nc1Nc1cccc(OC(F)(F)F)c1` [Compound R920402], the pIC50 is less than 5.00. Regarding `OCCOc1ccc(Nc2ncc(F)c(Nc3cccc(O)c3)n2)cc1` [Compound R935155], the pIC50 was 6.40.

The experiment is the same for the next values; noted with them: low cell density; read-out: CHMC anti-IgE Tryptase.
Consider `NCc1ccc(Nc2ncc(F)c(Nc3ccc(Cl)c(Cl)c3)n2)cc1` [Compound R950459], for which the pIC50 is 6.20. On the same count and under the same terms, for `CNC(=O)COc1cccc(Nc2ncc(F)c(Nc3ccc4c(c3)C(NC(=O)CN(C)C)CCO4)n2)c1` (racemic) [Compound R950416] the value was 5.64; for `NCc1ccc(Nc2ncc(F)c(Nc3ccc4c(c3)NC(=O)C(F)(F)O4)n2)cc1` [Compound R950465], 6.45; for `COc1cc(Nc2ncc(F)c(Nc3ccc4cnn(C)c4c3)n2)c(OC)cc1Cl` [Compound R935421], 5.54. Take `NC1CCOc2ccc(Nc3ncc(F)c(Nc4ccc(Cl)c(Cl)c4)n3)cc21` (racemic) [Compound R950437]: the pIC50 is 6.09.

With `Cn1ncc2ccc(Nc3nc(Cl)ncc3F)cc21` [Compound R935394], the pIC50 is less than 5.00. As for `CCOC(=O)CCn1ncc2cc(Nc3ncc(F)c(Nc4ccc(Cl)c(Cl)c4)n3)ccc21` [Compound R935389], the pIC50 is 6.06. Still for that read-out and setting: under `CNC(=O)COc1cccc(Nc2ncc(F)c(Nc3cccc(OCC(=O)NC)c3)n2)c1` [Compound R945378] stands 6.12. For the molecule `CCOC(=O)CCn1ncc2ccc(Nc3ncc(F)c(Nc4ccc(OC)c(Cl)c4)n3)cc21` [Compound R935406], the pIC50 is 5.93. The same measure, in the same setting: under `COc1cc(Nc2nc(Nc3ccc4c(c3)C(N)CCO4)ncc2F)cc(OC)c1` (racemic) [Compound R950436] stands 5.26; under `CNC(=O)COc1cccc(Nc2ncc(F)c(Nc3ccc(OC)c(Cl)c3)n2)c1` [Compound R926989], 6.70. As to `Cn1ncc2ccc(Nc3ncc(F)c(Nc4ccc(F)c(F)c4)n3)cc21` [Compound R935401], the pIC50 is 6.29. The same measure, in the same setting: under `CC(C)(C)OC(=O)NCc1ccc(Nc2ncc(F)c(Nc3ccc4c(c3)NC(=O)C(F)(F)O4)n2)cc1` [Compound R950464] stands 6.61.

On to `COc1cc(Nc2ncc(F)c(Nc3ccc4c(c3)C(NC(=O)OC(C)(C)C)CCO4)n2)cc(OC)c1` (racemic) [Compound R950425], for which the pIC50 was 5.94.

With `C[C@@H]1Oc2ccc(Nc3nc(N[C@@H]4CCCC[C@H]4N)ncc3F)cc2NC1=O` [Compound R950441], the pIC50 was less than 5.00. The same measure, in the same setting: under `Cn1ncc2ccc(Nc3nc(Nc4ccc5c(c4)NC(=O)C(C)(C)O5)ncc3F)cc21` [Compound R935424] stands 6.20. Same read-out and setting: for `Cc1cc(Nc2ncc(F)c(Nc3ccc4cnn(C)c4c3)n2)cc(Cl)c1O` [Compound R935395] the value was 6.56.

As for `CN(C)C(=O)C1Cc2cc(Nc3ncc(F)c(Nc4ccc(OC(F)(F)F)c(Cl)c4)n3)ccc2O1` (stereo not shown) [Compound R927053], the pIC50 is 6.17. With `COC(=O)N1CCN(c2ccc(Nc3nc(NC4CC4)ncc3F)cc2)CC1` [Compound R945373], the pIC50 is less than 5.00. Still for that read-out and setting: for `CC1Oc2ccc(Nc3nc(Nc4ccc5c(c4)C(N)CCO5)ncc3F)cc2NC1=O` (mixture of isomers) [Compound R950438] the value was 6.05; for `COc1cc(Nc2ncc(F)c(Nc3ccc4cn[nH]c4c3)n2)cc(OC)c1` [Compound R935423], 6.78; for `CC(=O)N(C)c1ccc(Nc2ncc(F)c(Nc3ccc4c(n3)NC(=O)CO4)n2)cc1` [Compound R945420], 6.36. The same measure, in the same setting: for `CNC(=O)COc1cccc(Nc2ncc(F)c(Nc3ccc4c(c3)C(NS(C)(=O)=O)CCO4)n2)c1` (racemic) [Compound R950494] the value was less than 5.00; for `CCOC(=O)CCn1ncc2ccc(Nc3ncc(F)c(Nc4ccc5c(c4)NC(=O)C(C)(C)O5)n3)cc21` [Compound R935434], 6.51; for `CCN(CC)CCNC(=O)c1ccc(Nc2ncc(F)c(Nc3ccc4c(c3)NC(=O)C(F)(F)O4)n2)cc1` [Compound R950449], 6.18. Still for that read-out and setting: for `CC(=O)N(C)c1ccc(Nc2ncc(F)c(NC3CCC3)n2)cc1` [Compound R945383] the value was 6.01; for `O=C1COc2ccc(Nc3nc(Nc4ccc(OCc5ccccc5)cc4)ncc3F)nc2N1` [Compound R945410], less than 5.00. `C[C@@H]1Oc2ccc(Nc3nc(Nc4ccc(CNC(=O)OC(C)(C)C)cc4)ncc3F)cc2NC1=O` [Compound R950460]: the pIC50 is 6.75. On the same count and under the same terms, for `COC(=O)N1CCN(c2ccc(Nc3ncc(F)c(NC4CCC4)n3)cc2)CC1` [Compound R945386] the value was 5.86. As for `COc1ccc(Nc2nc(Nc3ccc4[nH]ncc4c3)ncc2F)cc1OC` [Compound R935441], the pIC50 is 6.23. Still for that read-out and setting: for `CNC(=O)COc1cccc(Nc2ncc(F)c(Nc3ccc(OC4CCC(N)CC4)c(Cl)c3)n2)c1` (mixture of isomers) [Compound R945403] the value was 5.77; for `COc1cc(Nc2ncc(F)c(Nc3ccc4c(c3)NC(=O)C(C)(C)O4)n2)cc(OC)c1` [Compound R927073], 7.18. The same measure, in the same setting: for `Cn1ncc2cc(Nc3ncc(F)c(Nc4ccc(Cl)c(F)c4)n3)ccc21` [Compound R935411] the value was less than 5.00; for `COc1c(Cl)cc(Nc2ncc(F)c(Nc3ccc(OC(F)(F)F)c(Cl)c3)n2)cc1Cl` [Compound R927055], less than 5.00; for `Cc1cc(Nc2ncc(F)c(Nc3ccc4c(c3)NC(=O)C(C)(C)O4)n2)cc(C)c1C` [Compound R926994], 7.21.

Consider `CNC(=O)COc1cccc(Nc2ncc(F)c(Nc3ccc(OC(C)C)c(Cl)c3)n2)c1` [Compound R926973], for which the pIC50 is 6.55. Still for that read-out and setting: for `CCCCOc1ccc(Nc2ncc(F)c(Nc3ccc4c(n3)NC(=O)CO4)n2)cc1` [Compound R945408] the value was less than 5.00. With `COc1cc(Nc2nc(Nc3ccc4[nH]ncc4c3)ncc2F)ccc1F` [Compound R935417], the pIC50 was 6.38. Same read-out and setting: under `COc1cc(Nc2ncc(F)c(Nc3ccc4cnn(C)c4c3)n2)cc(OC)c1` [Compound R935420] stands 6.25; under `Cc1cc(C)cc(Nc2ncc(F)c(Nc3ccc4c(c3)NC(=O)C(C)(C)O4)n2)c1` [Compound R927076], 7.15. Consider `CC(C)(C)OC(=O)NC1CCOc2ccc(Nc3ncc(F)c(Nc4ccc(Cl)c(Cl)c4)n3)cc21` (racemic) [Compound R950433], for which the pIC50 is less than 5.00. As to `NC(=O)c1ccc(Nc2ncc(F)c(Nc3ccc(Cl)c(Cl)c3)n2)cc1` [Compound R950451], the pIC50 was 7.15. Consider `COC(=O)N1CCN(c2ccc(Nc3nc(NC4CCC4)ncc3F)cc2)CC1` [Compound R945374], for which the pIC50 was less than 5.00.

As to `CNC(=O)COc1cccc(Nc2ncc(F)c(Nc3ccc(N(C)C(C)=O)cc3)n2)c1` [Compound R945377], the pIC50 was 5.95. On the same count and under the same terms, for `COC(=O)c1ccc(Cn2cc3ccc(Nc4ncc(F)c(Nc5ccc(Cl)c(Cl)c5)n4)cc3n2)c(OC)c1` [Compound R935396] the value was 5.59; for `CNC(=O)c1ccc(Cn2ncc3ccc(Nc4ncc(F)c(Nc5ccc6c(c5)OCCO6)n4)cc32)c(OC)c1` [Compound R935399], 6.04. Same read-out and setting: under `CNC(=O)COc1cccc(Nc2ncc(F)c(Nc3ccc4c(c3)C(NS(=O)(=O)c3ccc(C)cc3)CCO4)n2)c1` (racemic) [Compound R950493] stands 5.72; under `COc1cc(Nc2nc(Nc3ccc4c(cnn4C)c3)ncc2F)ccc1F` [Compound R935410], 6.38; under `COc1cc(Nc2nc(Nc3ccc4c(c3)C(NC(=O)OC(C)(C)C)CCO4)ncc2F)cc(OC)c1` (racemic) [Compound R950432], 5.62. Still for that read-out and setting: under `COC(=O)COc1cccc(Nc2ncc(F)c(Nc3ccc4c(n3)NC(=O)C(C)(C)O4)n2)c1` [Compound R940392] stands 6.84; under `COc1cc(Nc2nc(Nc3ccc(C(N)=O)cc3)ncc2F)cc(OC)c1` [Compound R950450], 5.96; under `COc1c(C)cc(Nc2ncc(F)c(Nc3ccc4c(n3)NC(=O)C(C)(C)O4)n2)cc1Cl` [Compound R940391], 6.58. With `CC(C)(C)OC(=O)NC1CCOc2ccc(Nc3nc(Nc4ccc(Cl)c(Cl)c4)ncc3F)cc21` (racemic) [Compound R950429], the pIC50 is 5.40. On the same count and under the same terms, under `COc1c(C)cc(Nc2ncc(F)c(Nc3ccc4cnn(C)c4c3)n2)cc1Cl` [Compound R935419] stands 6.64; under `CNC(=O)COc1cccc(Nc2ncc(F)c(Nc3ccc(OC4CCC(NC(=O)OC(C)(C)C)CC4)c(Cl)c3)n2)c1` (mixture of isomers) [Compound R945384], 6.04; under `OCCCn1ncc2cc(Nc3ncc(F)c(Nc4ccc(F)c(F)c4)n3)ccc21` [Compound R935386], 6.54.

The next experiment deals with Human Jurkat T-cells (clone N). Nature of the experiment: Jurkat T-cell activation (anti-TCR, CD69 upregulation). The format is cell-based. The conditions noted are these: Homo sapiens, Jurkat. In a few lines:
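Readout is CD69 upregulation by flow cytometry (anti-CD69-APC, 20 min at 4 °C) after 20 h anti-TCR (C305, 500 ng/ml) stimulation at 37 °C.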
In turn, `O=C1COc2ccc(Nc3ncc(F)c(Nc4cccc(O)c4)n3)cc2N1` [Compound R909238] showed a pIC50 of 5.30. Still for that read-out and setting: under `Cc1cccc(Nc2nc(Cl)ncc2F)n1` [Compound R926888] stands 5.25.

The values are drawn from US8158621B2, “Methods of treating or preventing autoimmune diseases with 2,4-pyrimidinediamine compounds” (Rigel Pharmaceuticals, Inc., priority 2002, dated 2012).
